Tests used:
MEK1 activated ERK1 = biological target: T1, MEK1 activated ERK1 (Homo sapiens, UniProt P27361); test: Omnia continuous-read kinase assay for potency against MEK1 activated ERK1; assay type: biochemical; conditions: ATP at KM, WT
T1 construct: purchased Millipore (Billerica, Mass.) 14-439-K
Summary of the method: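 Apparent IC50 came from initial reaction slopes (RFU vs time) plotted against log inhibitor with a variable-slope fit. Reactions were started with ERK1 (4 nM final) added to 50 μM ATP, roughly at its appKM, and 10 μM Sox-conjugated ST17 peptide in 20 mM Tris pH 7.5, 5 mM MgCl2. Fluorescence was monitored every 71 seconds.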

[1] = test system: ERK1/2 phosphorylation of p90RSK in HCT116 cells; test: Detection of total and phospho-RSK by MSD ELISA (HCT116); assay type: cell-based; conditions: Homo sapiens, HCT-116, read-out: ERK1/ERK2 PRSK HCT116 EC50
Summary of the method: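 ERK1/2 activity read in cells as p90RSK phosphorylation: lysates from HCT116 cells given compound for 2 h at 37° C were captured on MSD plates. Detection used a pSer380 RSK or a total RSK antibody with SulfoTag secondaries.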

T1 sequence (P27361 whole entry): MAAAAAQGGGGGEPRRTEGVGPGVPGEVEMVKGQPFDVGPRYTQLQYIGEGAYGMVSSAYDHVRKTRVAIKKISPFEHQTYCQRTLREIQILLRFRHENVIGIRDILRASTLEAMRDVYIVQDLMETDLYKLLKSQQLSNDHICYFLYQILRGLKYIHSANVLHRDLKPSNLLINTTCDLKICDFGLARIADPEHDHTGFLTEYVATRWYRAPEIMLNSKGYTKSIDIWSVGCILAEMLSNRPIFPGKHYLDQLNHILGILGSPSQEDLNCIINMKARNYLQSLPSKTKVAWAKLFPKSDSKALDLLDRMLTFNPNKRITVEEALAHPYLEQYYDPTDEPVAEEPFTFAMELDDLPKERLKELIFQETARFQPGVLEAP

| Structure (SMILES) | IC50 (MEK1 activated ERK1) [nM] | EC50 [1] [nM] |
| --- | --- | --- |
| C=CC(=O)Nc1cc(C)ccc1Nc1nc(NC2COC2)ncc1C(F)(F)F [Compound I-420, N-(5-methyl-2-((2-(oxetan-3-ylamino)-5-(trifluoromethyl)pyrimidin-4-yl)amino)phenyl)acrylamide] | > 1000 | > 1000 |
| C=CC(=O)Nc1cc(C)ccc1Nc1nc(NC2CCC(=O)NC2)ncc1C(F)(F)F (racemic) [Compound I-368, Rac-N-(5-methyl-2-((2-((6-oxopiperidin-3-yl)amino)-5-(trifluoromethyl)pyrimidin-4-yl)amino)phenyl)acrylamide] | 101 to 500 | 101 to 500 |
| C#CC(=O)Nc1cc(C)ccc1Nc1nc(Nc2cc(OC)ncc2C)ncc1C(F)(F)F [Compound I-345, N-(2-((2-((2-methoxy-5-methylpyridin-4-yl)amino)-5-(trifluoromethyl)pyrimidin-4-yl)amino)-5-methylphenyl)propiolamide] | 101 to 500 | > 1000 |
| C=CC(=O)Nc1cc(C)ccc1Nc1nc(Nc2cc(-c3nc[nH]n3)ccc2C)ncc1C(F)(F)F [Compound I-373, N-(5-methyl-2-((2-((2-methyl-5-(1H-1,2,4-triazol-3-yl)phenyl)amino)-5-(trifluoromethyl)pyrimidin-4-yl)amino)phenyl)acrylamide] | > 1000 | 501 to 999 |

More lines, now with the values ahead:

| IC50 (MEK1 activated ERK1) [nM] | EC50 [1] [nM] | Structure (SMILES) |
| --- | --- | --- |
| < 100 | 101 to 500 | C=CC(=O)Nc1cc(CN2CCN(C(C)=O)C[C@@H]2C)ccc1Nc1nc(Nc2cc(OC)ncc2C)ncc1C(F)(F)F [Compound I-421, (S)—N-(5-((4-acetyl-2-methylpiperazin-1-yl)methyl)-2-((2-((2-methoxy-5-methylpyridin-4-yl)amino)-5-(trifluoromethyl)pyrimidin-4-yl)amino)phenyl)acrylamide] |
| < 100 | 101 to 500 | C=CC(=O)Nc1cc(O[C@@H](C)C(N)=O)ccc1Nc1nc(Nc2cc(OC)ncc2C)ncc1C(F)(F)F [Compound I-412, (S)—N-(5-((1-amino-1-oxopropan-2-yl)oxy)-2-((2-((2-methoxy-5-methylpyridin-4-yl)amino)-5-(trifluoromethyl)pyrimidin-4-yl)amino)phenyl)acrylamide] |
| < 100 | 101 to 500 | C=CC(=O)Nc1cc(OCCN2CCN(C(C)=O)CC2)ccc1Nc1nc(Nc2cc(OC)ncc2C)ncc1C(F)(F)F [Compound I-416, N-(5-(2-(4-acetylpiperazin-1-yl)ethoxy)-2-((2-((2-methoxy-5-methylpyridin-4-yl)amino)-5-(trifluoromethyl)pyrimidin-4-yl)amino)phenyl)acrylamide] |
